Values joined by “and” are separate entries in the source; they are usually repeats but may differ in a detail not shown here. Equal values may be shown once.
How the values were obtained:
[1] = target: T1, cloned human MT1 receptors (Homo sapiens, UniProt P48039); assay: [35S]GTPγS binding assay, NIH3T3 cells expressing human MT1; type: biochemical
T1 construct: expressed in transfected cells

Sprague Dawley rats = assay: Novelty-Induced Suppressed Feeding (NSF) Test; type: in vivo, rat; conditions: for Latency (sec) to feed: 60 min before the test
Experimental: The NSF test is used to assess the anti-anxiety effect of a drug [Bodnoff et al. Psychopharmacology 1988, 95(3), 298-307]. Sprague Dawley rats were used in the NSF test. The testing apparatus comprises a brightly lit open area covered with lab chow pellets. Forty-eight hours prior to behavioral testing, all food was removed from the apparatus. Animals treated with compound 5b (40 or 80 mg/kg) were injected 60 min before the test, whereas animals treated with vehicle (DMSO/saline 7:3) or diazepam were injected 45 min before the test. The drugs were administered subcutaneously and the experiments were conducted after 5:30 PM. The latency to feed, defined as chewing the food as opposed to merely sniffing or playing with a pellet, was then recorded (Table 6). The experiment was terminated for those animals that had not begun eating within a period of 360 seconds, which animals were assigned a latency score of 360 seconds. All analyses were conducted using Sigma Stats and SPSS software. The results are expressed as the mean±SEM per n (number) animals tested (*, p<0.01, ANOVA or t test).

[2] = system: Male rats (Sprague-Dawley); assay: EEG and EMG sleep recordings (slow wave sleep, REM sleep, wakefulness); type: in vivo, rat; conditions: 5b 40 mg/kg s.c.; individual rats 1-11
Experimental: Male rats (Sprague-Dawley) weighing approximately 300-340 g were used for surgical implantation of electroencephalogram (EEG) and electromyogram (EMG) electrodes. Following the recovery from surgery, the animals were housed separately in cages and kept on a 12-hour light/dark cycle (12 h light-12 h dark, 7:30 AM lights on) at a controlled temperature (21° C.). The rats had free access to food and water ad libitum.
Rats were anaesthetized using equithesin (425 mg chloral hydrate, 1 ml 100% ethanol, 98 mg pentobarbitone, 213 mg magnesium sulphate and 3 ml propylene glycol, sterile water per 10 ml of solution; 1 ml per 300 g body weight i.p.) and placed in a stereotactic frame. The skull was exposed and carefully cleaned. Two stainless-steel epidural electrodes were implanted for the registration of the EEG under stereotactic control, through 1.5 mm burr holes at the coordinates corresponding to the right parietal-occipital cortex (AP=−2 mm L=3 mm; AP=−7 mm L=3 mm) and the left parietal-occipital cortex (AP=−4.5 mm L=3 mm) according to the atlas by Paxinos (The Rat Brain in Stereotaxic Coordinates, Academic Press, 1995). Three stainless steel wire electrodes, isolated except for the last few millimeters, were implanted into the neck muscles (two bilaterally and one in the middle) for the monitoring of the EMG. The EEG epidural electrodes and the EMG wires were fitted to a six-pin female connector. For fixation to the skull, the wires and connector were covered with dental acrylic (Coltene/Whaledent Inc. USA). The animals were allowed to recover from the surgery for at least 3-4 days.
Twenty-four hours (24 h) following the surgery, the rats were placed in the recording room from noon to 9:00 PM, for 3-4 days. The rats were connected to the 6-flat cable (3M), in a freely-moving manner, from 6:00 PM to 9:00 PM for habituation. No recordings were performed at this time, however, the tolerance to the cable and the sleep behavior were observed.
Following 3-4 days of habituation, the rats received the injection of a vehicle (DMSO/saline 7:3, 0.2 ml s.c.) at 6:00 PM and the recording was carried out until 9:00 PM. On the following day the rats received diazepam (2 mg/kg, s.c.) at 6:00 PM and the recording was performed until 9:00 PM. Four days following the injection of diazepam, the rat received 5b (40 mg/kg s.c.) and the recording also performed from 6 to 9 PM.
For each experiment, a rat was placed individually in the cage and monitoring of the signal was carried out via the attachment of a non-restraining 6-wire flat cable and a female connector, which was connected to an impedance transformer with a gain of 10, located above the cage. The EEG signal was amplified (resulting in a total gain of 10,000) and locally filtered. The EMG signal was amplified as the EEG, (EEG: low filter 1.0 Hz; high 1 KHz, EMG: low filter 30.0 Hz; high 3 KHz). The power spectra analysis was performed for identification of the sleep stages. The behavior of the animals was observed during the experiment (eye movements, ambulation, rearing etc.).
The three classical vigilance-sleep states described in the rat were discriminated on the basis of the cortical EEG and neck EMG, following the classification by Ruigt et al. (Electroencephalography and clinical Neurophysiology, 1989, 73: 52-63). Wakefulness was identified by a low-amplitude and desynchronized EEG with sustained EMG activity. Slow wave sleep (SWS, includes Quiet sleep, deep sleep and Pre-REM) was clearly distinguished by high-voltage delta waves (2-4 Hz) and spindles associated with a […] EMG activity. Pre-REM sleep was characterized by a clear theta rhythm in the EEG, frequently alternating with short lasting, high voltage spindles. REM sleep was characterized by a low-amplitude EEG with a pronounced theta rhythm (5.5-8.5 Hz), a complete loss of muscle tone, and a low voltage EMG. […]

T1 sequence (P48039 whole entry): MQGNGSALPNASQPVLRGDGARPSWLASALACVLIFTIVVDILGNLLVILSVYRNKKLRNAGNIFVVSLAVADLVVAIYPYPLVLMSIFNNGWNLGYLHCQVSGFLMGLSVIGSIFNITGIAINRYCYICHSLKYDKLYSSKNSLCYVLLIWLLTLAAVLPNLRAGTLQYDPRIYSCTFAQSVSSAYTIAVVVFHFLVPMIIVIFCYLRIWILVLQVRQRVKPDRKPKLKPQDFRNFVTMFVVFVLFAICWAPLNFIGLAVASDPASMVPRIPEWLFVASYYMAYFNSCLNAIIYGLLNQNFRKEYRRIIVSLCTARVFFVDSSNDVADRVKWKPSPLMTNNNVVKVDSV

functional behaviour (maximal stimulation of basal [35S]GTPγS binding lower than melatonin) ([1]; MT1 and MT2): partial agonist
MT1 IAr ± SEM (relative intrinsic activity) ([1]; maximal net effect relative to MLT): 0.8 and 0.79 ± 0.03
SMILES: COc1cccc(N(CCNC(C)=O)c2ccccc2)c1 [5b, N-{2-[(3-Methoxyphenyl)-phenylamino]ethyl}acetamide]
Latency (sec) to feed (Sprague Dawley rats; 5b 40 mg/kg s.c.): 106.75 ± 10.13 (P ≦ 0.001)* sec
Latency (sec) to feed (Sprague Dawley rats; 5b 80 mg/kg s.c.): 115.28 ± 13.89 (P ≦ 0.001)* sec
latency to feed (FIG. 5) (Sprague Dawley rats; 5b 40 and 80 mg/kg, injected 60 min before the test, vs vehicle): decreased latency to feed
REM Sleep Duration [2]: 8.66 min and 7.04 min and 13.89 min and 4.96 min and 8.51 min and 11.6 min and 5.61 min and 7.2 min and 11.18 min and 11.76 min and 9.48 min
REM Sleep Latency [2]: 76.1 min and 62.31 min and 60.92 min and 109.5 min and 86.49 min and 71.16 min and 80.13 min and 101.41 min and 80.26 min and 54.26 min and 43.83 min
REM Sleep Mean of a Single Episode [2]: 1.237 min and 1.76 min and 1.54 min and 1.65 min and 1.063 min and 1.933 min and 1.402 min and 2.4 min and 2.23 min and 1.68 min and 1.896 min
REM Sleep Number (episodes) [2]: 7 episodes (2×) and 4 episodes (2×) and 9 episodes and 3 episodes (2×) and 8 episodes and 6 episodes and 5 episodes (2×)
Slow Wave Sleep Duration [2]: 110.29 min and 73.51 min and 87.14 min and 92.65 min and 89.42 min and 80.00 min and 88.47 min and 79.1 min and 85.8 min and 80.84 min and 104.2 min
Slow Wave Sleep Latency [2]: 15.73 min and 2.73 min and 1.05 min and 11.9 min and 10.85 min and 23.2 min and 25.9 min and 17.62 min and 5.05 min and 25.12 min and 17.24 min
Slow Wave Sleep Mean of a Single Episode [2]: 5.01 min and 2.53 min and 3 min and 3.3 min and 3.43 min and 4.21 min and 2.6 min and 2.26 min and 6.12 min and 7.34 min and 7.44 min
Slow Wave Sleep Number (episodes) [2]: 22 episodes and 29 episodes (2×) and 28 episodes and 26 episodes and 19 episodes and 34 episodes and 35 episodes and 14 episodes (2×) and 11 episodes
Wakefulness Duration [2]: 82.38 min and 82.05 min and 88.37 min and 85.99 min and 93.61 min and 83.69 min and 87.41 min and 90.48 min and 61.05 min and 92.11 min and 78.94 min
Wakefulness Mean of a Single Episode [2]: 3.39 min and 3.54 min and 3.28 min and 2.94 min and 3.56 min and 4.9 min and 2.38 min and 2.75 min and 6.43 min and 14.56 min and 7.54 min
Wakefulness Number (episodes) [2]: 18 episodes (2×) and 26 episodes and 24 episodes and 28 episodes and 23 episodes and 36 episodes and 34 episodes and 13 episodes and 6 episodes and 12 episodes
